# Key:
# Format in all cases: cell-based, Pseudomonas aeruginosa
# [1] = system: planktonic P. aeruginosa PAO1; assay: Minimum inhibitory concentration (MIC) determination; settings: for antimicrobial activity against P. aeruginosa PAO1: up to the highest concentrations applied
# Protocol: The minimum inhibitory concentration (MIC) of compounds and antibiotics were performed as previously described, with minor modification. […] Three antibiotics, including tobramycin, ciprofloxacin, and meropenem, were dissolved in water and filter sterilized. Ten microliters of two-fold serially diluted antibiotics were transferred to a 96-well Costar plate (Corning Inc., Corning, MA, USA) followed by the addition of 90 µL of diluted cultures. After an 18-h incubation at 37 °C in the static condition, optical density OD600 was monitored using a Synergy 2 microplate reader (BioTek, Winooski, VT, USA). […] The MIC was determined as the lowest concentrations of antibiotics that inhibit complete bacterial growth compared to growth control.
# [2] = system: PAO1ΔpelF (Pel deletion mutant); assay: Biofilm inhibition assay (OD600 growth and resazurin biofilm viability)
# Protocol: (§1) Figure 2 Biofilm assays to identify compounds that prevent biofilm formation. Biofilm inhibition assay. P. aeruginosa cultures were seeded into 384-well plates after dispensing compounds and antibiotics. The plates were incubated for 24 h at 37 °C followed by recording bacterial growth (OD600) and measuring the viability of biofilm bacteria using resazurin.
# (§2) The overnight cultures at 37 °C in LB medium were washed once with sterile saline 0.9% (w/v) and adjusted to an OD600 of 0.05, and 1% inoculum was transferred into a fresh LB medium. Following incubation at 37 °C, 200 rpm for 6–6.5 h to reach the mid-log phase, the cells were washed once with sterile saline 0.9% and diluted to an OD600 of 0.01. Then, 45 µL aliquots were dispensed into 384-well plates (Greiner Bio-One, Kremsmünster, Austria, catalog no. 781091). In biofilm inhibition assays, test compounds (5 µL) were loaded prior to the addition of bacteria. The plates were incubated for 24 h at 37 °C in static conditions. The effects of compounds on bacterial growth and viability of biofilm bacteria were determined by the OD600 and resazurin metabolic assay, respectively. The final concentrations of DMSO in the assays were 1–2%. The negative controls or untreated cultures consisted of inoculum and different concentrations of DMSO. Antibiotic ciprofloxacin (0.25 µg/mL and 25 µg/mL) was used as positive controls. The initial OD600 and final OD600 were read before incubation at 37 °C and after 24 h incubation, respectively, followed by assessment of biofilm viability by resazurin metabolic assay. The experiments were carried out with three technical replicates and repeated at least twice. The growth inhibition was calculated as a function of the percentage of the total bacterial inhibition using Equation (1), where AB is the OD600 of LB medium, and AT0 and ATf are the OD600 recorded at inoculating time and at the end of the assay. (1) % Inhibition=100 × [ 1 − [OD600 (Asample Tf− Asample T0)−(AB Tf − AB T0)/OD600 (Anegative control Tf− Anegative control T0)−(AB Tf − AB T0)]]
# (§3) Resazurin sodium salt (Sigma-Aldrich, St. Louis, MI, USA) was dissolved in Milli-Q water at 0.2% (w/v) and filter sterilized. The solution was stored at −20 °C in the dark. The assay was performed as previously described with modification. The cultures were withdrawn, and the plates were washed three times with sterile water using the plate washer (BioTek). To remove the remaining water in the wells, the plates were tapped with autoclaved paper towels. An amount of 50 µL of diluted RSZ solution in LB medium was added into each well, followed by incubation at 37 °C for 5–6 h. A microplate reader (BioTek Synergy 2) was used to measure the fluorescence intensity (excitation 530 nm, emission 590 nm). Data collected were determined as a function of fluorescence percentage using Equation (2), where FB is the fluorescence of the diluted RSZ solution in LB medium in the absence of P. aeruginosa cells. (2) % Inhibition=[(Fnegative control −FB )−(Fsample −FB )/(Fnegative control − FB )]×100
# [3] = system: PDO300 (mucoid, alginate-overproducing mutant); assay: as above
# Protocol: as §1, §2, §3
# [4] = system: PDO300Δalg8 (alginate deletion mutant); assay: as above
# Protocol: as §1, §2, §3
# [5] = system: wild-type P. aeruginosa PAO1; assay: as above
# Protocol: as §1, §2, §3
# [6] = system: planktonic PAO1; assay: Checkerboard assay with antibiotics; design: MIC of ciprofloxacin reduced to: unit not given beside the values; settings: for MIC of ciprofloxacin reduced to: in combination with compound; for synergy with ciprofloxacin: planktonic PAO1
# Protocol: The synergistic activity of compounds with antibiotics, including tobramycin, ciprofloxacin and meropenem, was investigated by a checkerboard dilution assay. Briefly, mid-log cultures of P. aeruginosa were diluted 1:1250 before being added to the plates. Next, 90 µL aliquots of diluted cells were added to a 96-well Costar (Corning) plate containing either 10 µL of compounds and/or 10 µL of antibiotics. Compounds and antibiotics were tested at 11 and 7 concentrations, respectively. The first row contained antibiotics alone, while the first column contained compounds alone, and the remaining columns were for combinations.
# [7] = system: efflux pumps of P. aeruginosa; assay: Ethidium bromide efflux assay; settings: for efflux pump inhibition (intracellular EtBr accumulation): 60 min, compound 3 at 53.1 and 106.2 µg/mL
# Description: We performed the ethidium bromide (EtBr) efflux assay to assess the ability of test compounds to inhibit efflux pumps of P. aeruginosa. The DNA-intercalating dye EtBr is a common substrate of the resistance-nodulation-cell division (RND) family. The dye only fluoresces when bound to DNA in the cytoplasm. The disruption of efflux pumps such as the RND pump AcrB enhances the accumulation of the substrate within the cells over time until it reaches a steady state. (Figure 5C).
# To investigate the efflux pump-inhibiting activity of test compounds on wild-type PAO1, an efflux assay using ethidium bromide (EtBr) as a substrate was performed as previously described. An overnight culture of PAO1 in LB broth was incubated in a shaker at 37 °C until it reached an OD600 of 0.5. The bacterial cells were washed with phosphate buffered saline (PBS) and centrifuged, and the pellet was resuspended in PBS. Test compounds, 5 µL, were added to the flat-bottomed, black 96-well-plate followed by addition of 90 µL of the bacterial suspension. EtBr at a non-toxic concentration (5 µL, 2 µg/mL) was added before the plates were read. The fluorescence reading was recorded at an excitation of 530 nm and emission of 590 nm every min for 60 min using a BioTek Synergy H1 Hybrid microplate reader. Carbonyl cyanide m-chlorophenyl hydrazone (CCCP), a chemical inhibitor of efflux pumps, was used as the positive control, and DMSO (1–2%) was used as the vehicle control, as compounds were dissolved in DMSO. Untreated cells were used as the negative control.
# [8] = compound 69.1 µg/mL + ciprofloxacin 1/4 MIC (0.0625 µg/mL)
# [9] = compound 86.2 µg/mL + ciprofloxacin 1/3 MIC (0.083 µg/mL), 24 h
smiles,measurement,setting,value
"COc1c(Br)cc(/C=C/C(=O)NCCCNCCCCN)cc1Br [Compound 2, ianthelliformisamine B]",antimicrobial activity against P. aeruginosa PAO1,[1],no antimicrobial activity
same,improvement of biofilm suppression by addition of ciprofloxacin,[2]; ciprofloxacin 1/3 MIC added,20%
same,improvement of biofilm suppression by addition of ciprofloxacin,[2]; ciprofloxacin 1/4 MIC added,13%
same,growth inhibition and antibiofilm activity,[2]; [8],caused growth inhibition and antibiofilm activity
same,blockage of cellular progression (growth),[3]; compound alone,> 50%
same,blockage of cellular progression (growth),[3]; in the presence of ciprofloxacin at 1/3 and 1/4 MICs,> 70%
same,survival compromised,[4]; compound + ciprofloxacin at 1/3 MIC,60%
same,survival compromised,[4]; compound + ciprofloxacin at 1/4 MIC,40%
same,susceptibility of biofilms,[4]; compound + ciprofloxacin at 1/4 and 1/3 MIC,much less susceptible
same,growth inhibition and antibiofilm activity,[5]; [8],caused growth inhibition and antibiofilm activity
same,antimicrobial activity / prevention of biofilm formation,"[5]; compound alone, 24 h",did not yield any antimicrobial activity and/or prevented biofilm formation
same,enhancement of the activity of tobramycin or meropenem,[6],did not enhance
same,MIC of ciprofloxacin reduced to,[6],1/4
same,synergy with ciprofloxacin,[6],worked synergistically
same,efflux pump inhibition (intracellular EtBr accumulation),[7],comparable EtBr accumulation with untreated bacteria
"COc1c(Br)cc(/C=C/C(=O)NCCCNCCCCNCCCNC(=O)/C=C/c2cc(Br)c(OC)c(Br)c2)cc1Br [Compound 3, ianthelliformisamine C]",MIC,"[1]; Pseudomonas aeruginosa, planktonic (free-living) PAO1, LB medium, 18 h, 37 °C",53.1 µg/mL
same,biofilm response (reduction),[2]; combinations of compound with ciprofloxacin,~ 60%
same,"synergistic interaction with ciprofloxacin, planktonic forms and biofilms",[2]; compound 53.1 µg/mL,negligible synergistic interactions
same,interaction with ciprofloxacin on biofilm,"[2]; compound 106.2 µg/mL, ciprofloxacin 1/4 MIC",antagonized
same,biofilm response (reduction),[2]; compound alone 106.2 µg/mL,~ 40%
same,planktonic growth inhibition,[2]; compound alone 106.2 µg/mL,independently inhibited planktonic growth
same,effect on free-living cells,[3]; compound alone,eradicated
same,reduction of biofilm viability,[3]; compound alone,~ 100%
same,effect on free-living cells,[4]; compound alone,eradicated
same,reduction of biofilm viability,[4]; compound alone,80%
same,"synergistic interaction with ciprofloxacin, planktonic forms and biofilms",[5]; compound 53.1 µg/mL,negligible synergistic interactions
same,planktonic growth inhibition,[5]; compound alone 106.2 µg/mL,independently inhibited planktonic growth
same,killing of biofilm bacteria,"[5]; compound alone, 24 h",≤ 60%
same,killing of free-living bacteria,"[5]; compound alone, 24 h",up to 30%
same,synergy with ciprofloxacin,[6],limited synergy
same,level of intracellular EtBr accumulation relative to CCCP,[7],greater than that mediated by reference compound CCCP
same,efflux pump inhibition (intracellular EtBr accumulation),[7],is an efflux pump inhibitor
same,efflux pump inhibition (intracellular EtBr accumulation),[7]; listed as ianthelliformisamine C,inhibited the efflux pump
"COc1c(Br)cc(/C=C/C(=O)NCCCNCCCCNCCCN)cc1Br [Compound 1, ianthelliformisamine A]",antimicrobial activity against P. aeruginosa PAO1,[1],no antimicrobial activity
same,growth disruption,[2]; [9],> 90%
same,prevention of biofilm formation,[2]; [9],> 90%
same,biofilm effect,[3]; compound 43.1 µg/mL + ciprofloxacin 1/3 and 1/4 MICs,approximately 100%
same,biofilm effect,[3]; compound alone at 43.1 µg/mL,20%
same,growth inhibition,[3]; compound alone at 43.1 µg/mL and 86.2 µg/mL,> 70%
same,reduction of biofilm formation,[3]; compound alone at 86.2 µg/mL,~ 80%
same,activity against biofilm bacteria,[4],< 60%
same,effect on planktonic counterparts,[4],significant death
same,growth disruption,[5]; [9],> 90%
same,prevention of biofilm formation,[5]; [9],> 90%
same,antimicrobial activity / prevention of biofilm formation,"[5]; compound alone, 24 h",did not yield any antimicrobial activity and/or prevented biofilm formation
same,enhancement of the activity of tobramycin or meropenem,[6],did not enhance
same,MIC of ciprofloxacin reduced to,[6],1/3
same,synergy with ciprofloxacin,[6],worked synergistically
same,efflux pump inhibition (intracellular EtBr accumulation),[7],comparable EtBr accumulation with untreated bacteria
